Where “and” joins values, the source holds several entries; their conditions need not be identical. Identical values can stand only once.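 Step 1: Grow cells in 96-well plates. Step 2: Expose to compound for 48 hours at 5 concentrations. Step 3: Interpolate endpoints linearly; if unreached, use highest concentration. GI50 is the concentration that inhibits growth by half. TGI: concentration producing complete growth inhibition.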
Columns and labels:
Assay in all cases: NCI tumour cell line growth inhibition, 48 h
[1] = tested on: HT29 colon
[2] = tested on: HCT-116 colon
[3] = tested on: NCI-H23 lung
[4] = tested on: HOP-62 NSCLC
[5] = tested on: UACC-62 melanoma
[6] = tested on: A549 NSCLC
[7] = tested on: HOP-92 NSCLC
[8] = tested on: SNB-75 CNS
[9] = tested on: SK-MEL-2 melanoma
[10] = tested on: SNB-19 CNS
[11] = tested on: U251 CNS
[12] = tested on: DMS 273 small cell lung
[13] = tested on: MCF7 breast
[14] = tested on: P388/ADR leukemia
[15] = tested on: M19-MEL melanoma
[16] = tested on: EKVX NSCLC
[17] = tested on: A498 renal
[18] = tested on: HL-60(TB) leukemia
[19] = tested on: HOP-18 NSCLC
[20] = tested on: SN12C renal
[21] = tested on: OVCAR-4 ovarian
[22] = tested on: SN12K1 renal
[23] = tested on: SK-OV-3 ovarian
[24] = tested on: DMS 114 small cell lung
[25] = tested on: KM20L2 colon
[26] = tested on: NCI-H460 lung
[27] = tested on: NCI-H522 lung
[28] = tested on: RXF 393 renal
[29] = tested on: IGROV1 ovarian
[30] = tested on: NCI-H226 lung
[31] = tested on: OVCAR-8 ovarian
[32] = tested on: SF-539 CNS
[33] = tested on: SK-MEL-28 melanoma
[34] = tested on: SW-620 colon
[35] = tested on: OVCAR-5 ovarian
[36] = tested on: SK-MEL-5 melanoma
[37] = tested on: RPMI-8226 leukemia
[38] = tested on: MOLT-4 leukemia
[39] = tested on: CAKI-1 renal
[40] = tested on: HCC-2998 colon
[41] = tested on: K-562 leukemia
[42] = tested on: OVCAR-3 ovarian
[43] = tested on: COLO 205 colon
[44] = tested on: CCRF-CEM leukemia
[45] = tested on: LOX IMVI melanoma
[46] = tested on: UO-31 renal
[47] = tested on: UACC-257 melanoma
[48] = tested on: HCT-15 colon
[49] = tested on: SF-268 CNS
[50] = tested on: KM12 colon
[51] = tested on: SNB-78 CNS
[52] = tested on: SF-295 CNS
[53] = tested on: P388 leukemia
[54] = tested on: XF 498 CNS
[55] = tested on: DLD-1 colon
[56] = tested on: NCI/ADR-RES ovarian

O=C(CCN1CCCCC1)C(=Cc1ccccc1)C(=O)CCN1CCCCC1
GI50 [1]: 76.3 µM
TGI [1]: > 100 µM
TGI [2]: > 100 µM
TGI [3]: > 100 µM
TGI [4]: > 100 µM
GI50 [5]: 8.82 µM
TGI [5]: > 100 µM
TGI [6]: > 100 µM
TGI [7]: > 96.8 µM
TGI [8]: > 100 µM
TGI [9]: > 100 µM
TGI [10]: > 100 µM
GI50 [11]: 3.04 µM
TGI [11]: > 100 µM
GI50 [12]: 7.61 µM
TGI [12]: > 100 µM
TGI [13]: > 100 µM
TGI [14]: > 72.4 µM
TGI [15]: > 100 µM
TGI [16]: > 100 µM
TGI [17]: > 100 µM
GI50 [18]: 2.2 µM
TGI [18]: 6.05 µM and 48 µM
GI50 [19]: > 100 µM
TGI [19]: > 100 µM
GI50 [20]: 3.52 µM
TGI [20]: > 100 µM
TGI [21]: > 100 µM
TGI [22]: > 100 µM
TGI [23]: > 100 µM
GI50 [24]: 38.7 µM
TGI [25]: > 100 µM
TGI [26]: > 100 µM
GI50 [27]: 15.1 µM
GI50 [28]: 16.9 µM
TGI [28]: 34.3 µM
TGI [29]: > 100 µM
TGI [30]: > 100 µM
GI50 [31]: 2.56 µM
TGI [31]: > 58.1 µM
TGI [32]: > 100 µM
GI50 [33]: > 100 µM
TGI [33]: > 100 µM
GI50 [34]: 1.76 µM
TGI [35]: > 100 µM
TGI [36]: > 100 µM
GI50 [37]: 4.49 µM
TGI [37]: 57.9 µM
GI50 [38]: 4.32 µM
TGI [38]: 42.3 µM
GI50 [39]: 80.4 µM
TGI [39]: > 100 µM
TGI [40]: > 100 µM
GI50 [41]: 3.46 µM
TGI [41]: > 55.2 µM
GI50 [42]: > 100 µM
TGI [42]: > 100 µM
GI50 [43]: 2.62 µM
TGI [43]: > 76.4 µM
GI50 [44]: 2.44 µM
TGI [44]: 7.36 µM and 51.2 µM
GI50 [45]: 3.39 µM
TGI [45]: > 100 µM
TGI [46]: > 100 µM
GI50 [47]: 87.4 µM
TGI [47]: > 100 µM
GI50 [48]: 3.07 µM
GI50 [49]: 5.88 µM
TGI [49]: > 100 µM
TGI [50]: > 100 µM
GI50 [51]: 3.5 µM
TGI [51]: > 100 µM
TGI [52]: > 100 µM
TGI [53]: > 31.6 µM
GI50 [54]: 5.35 µM
TGI [54]: > 100 µM
TGI [55]: 44.5 µM
TGI [56]: > 100 µM

Source: PubChem BioAssay (NCI)
